Assay results from patent US6531606B1, “Pharmaceutical compositions incorporating aryl substituted olefinic amine compounds” (Targacept, Inc., priority 1997, dated 2003).
Counter-ions that a name gives are not always drawn.

Target: CNS nicotinic receptors (dopamine release)
Assay: Determination of dopamine release
Assay type: cell-based
Details: read-out: Dopamine Release EC50
For `CCOc1cncc(/C=C/CCNC)c1` [Sample No. 7, (E)-N-Methyl-4-[3-(5-ethoxypyridin)yl]-3-buten-1-amine Sesquifumarate], the EC50 was 276 nM.

Same assay, conditions: read-out: Dopamine Release EC50 (nM)
`NCC/C=C/c1cncc(Br)c1` [Sample No. 2, (E)-4-[3-(5-Bromopyridin)yl]-3-buten-1-amine Hemifumarate] gave an EC50 of 2400 nM. `CNCC/C=C/c1cncc(-c2ccccc2)c1` [Sample No. 8, (E)-N-Methyl-4-[3-(5-phenylpyridin)yl]-3-buten-1-amine] showed an EC50 of over 100000 nM. With `CNCC/C=C/c1cncc(Oc2ccccc2)c1` [Sample No. 3, (E)-N-Methyl-4-[3-(5-phenoxypyridin)yl]-3-buten-1-amine] the EC50 was 114 nM. For `NCC/C=C/c1cccnc1.O=C(O)/C=C/C(=O)O.O=C(O)/C=C/C(=O)O` [Sample No. 6, (E)-4-(3-pyridinyl)-3-buten-1-amine difumarate], the EC50 was 5020 nM. With `CNCC/C=C/c1cncc(N)c1` [Sample No. 9, (E)-N-methyl-4-[3-(5-aminopyridin)yl]-3-buten-1-amine] the EC50 was 2000 nM. `CNCC/C=C/c1cncc(OCc2ccccc2)c1` [Sample No. 1, (E)-N-Methyl-4-[3-(5-benzyloxypyridin)yl]-3-buten-1-amine] gave an EC50 of 4000 nM. In the case of `CNCC/C=C/c1cncc(COC)c1` [Sample No. 5, (E)-N-Methyl-4-[3-(5-methoxymethylpyridin)yl]-3-buten-1-amine], the EC50 is reported as 16000 nM.

Same assay, conditions: read-out: Dopamine Release Emax
Work on `NCC/C=C/c1cncc(Br)c1` [Sample No. 2, (E)-4-[3-(5-Bromopyridin)yl]-3-buten-1-amine Hemifumarate] yielded an Emax of 107%. With `NCC/C=C/c1cccnc1.O=C(O)/C=C/C(=O)O.O=C(O)/C=C/C(=O)O` [Sample No. 6, (E)-4-(3-pyridinyl)-3-buten-1-amine difumarate] the Emax was 81%. Compound `CCOc1cncc(/C=C/CCNC)c1` [Sample No. 7, (E)-N-Methyl-4-[3-(5-ethoxypyridin)yl]-3-buten-1-amine Sesquifumarate] has an Emax of 70%. `CNCC/C=C/c1cncc(N)c1` [Sample No. 9, (E)-N-methyl-4-[3-(5-aminopyridin)yl]-3-buten-1-amine] gave an Emax of 85%.

Target: T1, high affinity CNS nicotinic receptors (Rattus norvegicus, UniProt P09483+P12390)
T1 construct: from tissue
T1 sequence (P09483 31-630): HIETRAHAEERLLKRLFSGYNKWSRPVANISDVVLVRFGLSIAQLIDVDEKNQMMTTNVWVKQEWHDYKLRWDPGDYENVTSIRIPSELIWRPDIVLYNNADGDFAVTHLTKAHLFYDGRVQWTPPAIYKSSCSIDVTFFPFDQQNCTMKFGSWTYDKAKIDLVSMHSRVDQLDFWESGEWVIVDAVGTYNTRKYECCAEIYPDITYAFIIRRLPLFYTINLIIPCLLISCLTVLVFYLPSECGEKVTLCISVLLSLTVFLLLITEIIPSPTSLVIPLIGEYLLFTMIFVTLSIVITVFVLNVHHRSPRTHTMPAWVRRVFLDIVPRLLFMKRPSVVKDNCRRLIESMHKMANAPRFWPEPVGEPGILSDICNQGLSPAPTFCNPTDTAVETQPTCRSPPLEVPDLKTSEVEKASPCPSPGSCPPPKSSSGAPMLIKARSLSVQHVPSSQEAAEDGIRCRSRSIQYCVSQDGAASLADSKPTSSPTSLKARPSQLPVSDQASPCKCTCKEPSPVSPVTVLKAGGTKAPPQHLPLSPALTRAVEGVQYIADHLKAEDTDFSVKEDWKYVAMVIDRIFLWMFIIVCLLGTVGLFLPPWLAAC
T1 sequence (P12390 25-500): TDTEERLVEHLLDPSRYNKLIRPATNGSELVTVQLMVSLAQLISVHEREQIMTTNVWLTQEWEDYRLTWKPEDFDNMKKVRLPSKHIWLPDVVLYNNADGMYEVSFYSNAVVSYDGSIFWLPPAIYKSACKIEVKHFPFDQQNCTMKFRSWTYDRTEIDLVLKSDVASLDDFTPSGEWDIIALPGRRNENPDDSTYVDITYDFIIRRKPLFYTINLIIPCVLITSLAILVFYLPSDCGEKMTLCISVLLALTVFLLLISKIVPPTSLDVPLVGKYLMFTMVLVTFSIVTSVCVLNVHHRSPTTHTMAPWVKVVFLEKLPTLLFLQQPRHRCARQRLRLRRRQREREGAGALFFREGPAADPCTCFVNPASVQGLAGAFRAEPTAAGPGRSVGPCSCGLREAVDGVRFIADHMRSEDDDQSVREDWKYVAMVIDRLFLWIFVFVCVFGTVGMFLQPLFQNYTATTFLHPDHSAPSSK
Assay: biochemical
Assay type: binding
Details: calculated from IC50 values using the method of Cheng et al.
For `NCC/C=C/c1cncc(Br)c1` [Sample No. 2, (E)-4-[3-(5-Bromopyridin)yl]-3-buten-1-amine Hemifumarate], the Ki was 79 nM. `CNCC/C=C/c1cncc(-c2ccccc2)c1` [Sample No. 8, (E)-N-Methyl-4-[3-(5-phenylpyridin)yl]-3-buten-1-amine] showed a Ki of 184 nM. Compound `CNCC/C=C/c1cncc(OC(C)C)c1` [Sample No. 4, (E)-N-Methyl-4-[3-(5-isopropoxypyridin)yl]-3-buten-1-amine] has a Ki of 6 nM. Work on `CNCC/C=C/c1cncc(Oc2ccccc2)c1` [Sample No. 3, (E)-N-Methyl-4-[3-(5-phenoxypyridin)yl]-3-buten-1-amine] yielded a Ki of 21 nM. In the case of `NCC/C=C/c1cccnc1.O=C(O)/C=C/C(=O)O.O=C(O)/C=C/C(=O)O` [Sample No. 6, (E)-4-(3-pyridinyl)-3-buten-1-amine difumarate], the Ki is reported as 119 nM. `CCOc1cncc(/C=C/CCNC)c1` [Sample No. 7, (E)-N-Methyl-4-[3-(5-ethoxypyridin)yl]-3-buten-1-amine Sesquifumarate] gave a Ki of 5 nM. `CNCC/C=C/c1cncc(N)c1` [Sample No. 9, (E)-N-methyl-4-[3-(5-aminopyridin)yl]-3-buten-1-amine] showed a Ki of 658 nM. Compound `CNCC/C=C/c1cncc(OCc2ccccc2)c1` [Sample No. 1, (E)-N-Methyl-4-[3-(5-benzyloxypyridin)yl]-3-buten-1-amine] has a Ki of 5 nM. `CNCC/C=C/c1cncc(COC)c1` [Sample No. 5, (E)-N-Methyl-4-[3-(5-methoxymethylpyridin)yl]-3-buten-1-amine] gave a Ki of 130 nM.

Target: T2, muscle receptors (nicotinic receptors of human muscle) (Homo sapiens, UniProt P02708+P07510+Q07001)
T2 construct: endogenous in cells; host or cells: cell preparations derived from muscle
T2 sequence (P02708 21-457): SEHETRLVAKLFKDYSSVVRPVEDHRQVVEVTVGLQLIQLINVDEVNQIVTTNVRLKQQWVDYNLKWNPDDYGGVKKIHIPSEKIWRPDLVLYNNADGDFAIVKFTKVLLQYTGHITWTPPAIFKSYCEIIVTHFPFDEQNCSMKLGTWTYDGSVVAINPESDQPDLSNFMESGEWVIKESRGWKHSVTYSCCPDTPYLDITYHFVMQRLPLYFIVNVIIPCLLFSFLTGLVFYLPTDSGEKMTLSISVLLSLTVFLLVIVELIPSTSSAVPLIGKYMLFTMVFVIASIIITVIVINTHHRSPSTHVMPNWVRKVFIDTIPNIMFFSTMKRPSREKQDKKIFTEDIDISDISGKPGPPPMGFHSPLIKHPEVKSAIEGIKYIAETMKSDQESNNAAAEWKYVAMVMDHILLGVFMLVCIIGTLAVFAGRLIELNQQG
T2 sequence (P11230 24-501 partner): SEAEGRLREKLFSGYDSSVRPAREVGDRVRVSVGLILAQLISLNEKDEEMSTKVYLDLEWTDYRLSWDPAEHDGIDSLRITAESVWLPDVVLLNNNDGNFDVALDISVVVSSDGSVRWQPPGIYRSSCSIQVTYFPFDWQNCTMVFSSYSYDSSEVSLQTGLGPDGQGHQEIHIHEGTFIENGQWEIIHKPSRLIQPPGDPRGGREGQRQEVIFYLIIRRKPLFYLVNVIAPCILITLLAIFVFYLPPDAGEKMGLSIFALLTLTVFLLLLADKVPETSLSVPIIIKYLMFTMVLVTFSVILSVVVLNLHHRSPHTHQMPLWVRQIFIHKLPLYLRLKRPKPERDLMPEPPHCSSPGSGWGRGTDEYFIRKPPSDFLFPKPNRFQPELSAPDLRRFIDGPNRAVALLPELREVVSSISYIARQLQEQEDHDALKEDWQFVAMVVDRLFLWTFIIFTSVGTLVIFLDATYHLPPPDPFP
T2 sequence (Q07001 22-517): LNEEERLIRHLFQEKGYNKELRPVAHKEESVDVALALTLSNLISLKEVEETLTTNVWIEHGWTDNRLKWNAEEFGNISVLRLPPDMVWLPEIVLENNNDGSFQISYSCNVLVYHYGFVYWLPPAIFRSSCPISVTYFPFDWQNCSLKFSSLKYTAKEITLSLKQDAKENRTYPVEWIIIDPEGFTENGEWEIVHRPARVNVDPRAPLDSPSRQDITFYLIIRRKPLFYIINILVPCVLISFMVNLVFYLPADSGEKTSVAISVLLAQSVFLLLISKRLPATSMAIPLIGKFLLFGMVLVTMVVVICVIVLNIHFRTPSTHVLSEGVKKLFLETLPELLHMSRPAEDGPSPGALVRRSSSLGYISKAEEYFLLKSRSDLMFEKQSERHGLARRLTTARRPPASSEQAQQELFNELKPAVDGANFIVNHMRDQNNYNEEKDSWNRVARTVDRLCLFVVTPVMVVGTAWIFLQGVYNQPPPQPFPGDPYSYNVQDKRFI
T2 sequence (P07510 23-517): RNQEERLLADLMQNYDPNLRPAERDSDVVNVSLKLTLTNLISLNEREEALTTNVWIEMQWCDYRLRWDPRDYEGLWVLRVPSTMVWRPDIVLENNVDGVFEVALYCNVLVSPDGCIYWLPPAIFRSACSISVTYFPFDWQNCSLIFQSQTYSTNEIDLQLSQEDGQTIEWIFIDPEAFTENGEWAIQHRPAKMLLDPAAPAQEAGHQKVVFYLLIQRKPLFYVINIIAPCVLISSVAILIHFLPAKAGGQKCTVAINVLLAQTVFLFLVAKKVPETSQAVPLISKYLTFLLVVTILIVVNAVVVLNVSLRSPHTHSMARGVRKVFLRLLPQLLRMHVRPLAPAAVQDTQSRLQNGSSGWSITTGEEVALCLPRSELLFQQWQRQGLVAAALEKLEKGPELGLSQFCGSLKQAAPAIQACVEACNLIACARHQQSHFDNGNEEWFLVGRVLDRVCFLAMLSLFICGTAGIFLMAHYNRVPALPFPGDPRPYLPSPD
Assay: Determination of interaction with muscle
Assay type: cell-based
Details: maximal activation (Emax) as percentage of maximal activation induced by (S)-(-)-nicotine
Text: The compounds of the present invention, when employed in effective amounts in accordance with the method of the present invention, lack the ability to elicit activation of nicotinic receptors of human muscle to any significant degree. […] Generally, typical compounds useful in carrying out the present invention activate isotopic rubidium ion flux by less than 20 percent, often by less than 15 percent, and frequently by less than 10 percent, of that elicited by an equal molar amount of (S)-(−)-nicotine.
(§1) The determination of the interaction of the compounds with muscle receptors was carried out in accordance with the techniques described in U.S. Pat. No. 5,597,919 to Dull et al., the subject matter of which is already incorporated herein by reference in its entirety. […] The maximal activation for individual compounds (Emax) was determined as a percentage of the maximal activation induced by (S)-(−)-nicotine.
In the case of `NCC/C=C/c1cncc(Br)c1` [Sample No. 2, (E)-4-[3-(5-Bromopyridin)yl]-3-buten-1-amine Hemifumarate], the “Muscle Effect (% nicotine)” value is reported as 8 % nicotine. For `CNCC/C=C/c1cncc(-c2ccccc2)c1` [Sample No. 8, (E)-N-Methyl-4-[3-(5-phenylpyridin)yl]-3-buten-1-amine], the “Muscle Effect (% nicotine)” value was 8 % nicotine. In the case of `CN1CCC[C@H]1c1cccnc1` [Sample No. C-1, (S)-(−)-nicotine, reference compound], the “Muscle Effect (% nicotine)” value is reported as 100 % nicotine. In the case of `CNCC/C=C/c1cncc(OC(C)C)c1` [Sample No. 4, (E)-N-Methyl-4-[3-(5-isopropoxypyridin)yl]-3-buten-1-amine], the “Muscle Effect (% nicotine)” value is reported as 8 % nicotine. For `CNCC/C=C/c1cncc(Oc2ccccc2)c1` [Sample No. 3, (E)-N-Methyl-4-[3-(5-phenoxypyridin)yl]-3-buten-1-amine], the “Muscle Effect (% nicotine)” value was 5 % nicotine. With `NCC/C=C/c1cccnc1.O=C(O)/C=C/C(=O)O.O=C(O)/C=C/C(=O)O` [Sample No. 6, (E)-4-(3-pyridinyl)-3-buten-1-amine difumarate] the “Muscle Effect (% nicotine)” value was 15 % nicotine. For `CCOc1cncc(/C=C/CCNC)c1` [Sample No. 7, (E)-N-Methyl-4-[3-(5-ethoxypyridin)yl]-3-buten-1-amine Sesquifumarate], the “Muscle Effect (% nicotine)” value was 3 % nicotine. With `CNCC/C=C/c1cncc(N)c1` [Sample No. 9, (E)-N-methyl-4-[3-(5-aminopyridin)yl]-3-buten-1-amine] the “Muscle Effect (% nicotine)” value was 4 % nicotine. With `CNCC/C=C/c1cncc(OCc2ccccc2)c1` [Sample No. 1, (E)-N-Methyl-4-[3-(5-benzyloxypyridin)yl]-3-buten-1-amine] the “Muscle Effect (% nicotine)” value was 12 % nicotine. For `CNCC/C=C/c1cncc(COC)c1` [Sample No. 5, (E)-N-Methyl-4-[3-(5-methoxymethylpyridin)yl]-3-buten-1-amine], the “Muscle Effect (% nicotine)” value was 13 % nicotine.

Test system: not given
Assay: not given
Details: not given
In the case of `NCC/C=C/c1cncc(Br)c1` (as salt: fumarate) [Sample No. 2, (E)-4-[3-(5-Bromopyridin)yl]-3-buten-1-amine Hemifumarate], the melting point is reported as 175 to 176.5 °C.

Target: T3, ganglionic receptors (ganglionic-type nicotinic receptors) (Rattus norvegicus, UniProt P04757+P12392)
T3 construct: endogenous in cells; host or cells: cell preparations derived from the adrenal gland
T3 sequence (P04757 26-499): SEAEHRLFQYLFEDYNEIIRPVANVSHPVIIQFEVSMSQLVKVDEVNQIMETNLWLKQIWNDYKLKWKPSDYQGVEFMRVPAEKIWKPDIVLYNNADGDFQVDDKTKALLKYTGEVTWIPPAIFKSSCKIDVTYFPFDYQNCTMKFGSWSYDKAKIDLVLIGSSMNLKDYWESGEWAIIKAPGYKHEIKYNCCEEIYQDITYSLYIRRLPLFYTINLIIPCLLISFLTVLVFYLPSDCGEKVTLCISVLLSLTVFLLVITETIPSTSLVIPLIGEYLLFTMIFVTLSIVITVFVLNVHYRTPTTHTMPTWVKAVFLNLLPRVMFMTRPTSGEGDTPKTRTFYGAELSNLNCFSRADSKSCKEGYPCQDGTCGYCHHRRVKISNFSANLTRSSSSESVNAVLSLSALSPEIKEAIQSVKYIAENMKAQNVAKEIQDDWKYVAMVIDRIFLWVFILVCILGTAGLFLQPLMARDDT
T3 sequence (P12392 21-495): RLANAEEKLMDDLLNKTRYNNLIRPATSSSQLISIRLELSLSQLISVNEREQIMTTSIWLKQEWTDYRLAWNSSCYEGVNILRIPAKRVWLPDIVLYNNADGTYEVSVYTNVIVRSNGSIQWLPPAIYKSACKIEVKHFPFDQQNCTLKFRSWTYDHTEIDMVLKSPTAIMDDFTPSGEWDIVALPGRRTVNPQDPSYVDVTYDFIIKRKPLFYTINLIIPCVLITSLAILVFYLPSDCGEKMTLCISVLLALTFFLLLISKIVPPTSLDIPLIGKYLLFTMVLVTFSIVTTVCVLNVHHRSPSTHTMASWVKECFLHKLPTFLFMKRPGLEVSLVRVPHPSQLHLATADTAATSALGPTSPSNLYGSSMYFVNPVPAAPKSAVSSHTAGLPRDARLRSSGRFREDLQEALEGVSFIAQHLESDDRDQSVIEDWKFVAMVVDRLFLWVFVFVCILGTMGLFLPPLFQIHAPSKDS
Assay: Determination of interaction with ganglia
Assay type: cell-based
Details: maximal activation (Emax) as percentage of maximal activation induced by (S)-(-)-nicotine
Text: By this is meant that a particular dose of compound resulting in prevention and/or treatment of a CNS disorder is essentially ineffective in eliciting activation of certain ganglionic-type nicotinic receptors. […] As such, the compounds of the present invention have poor ability to cause isotopic rubidium ion flux through nicotinic receptors in cell preparations derived from the adrenal gland. Generally, the compounds useful in the present invention activate isotopic rubidium ion flux by less than 25 percent, often by less than 15 percent, frequently by less than 10 percent, and even essentially 0 percent, of that elicited by an equal molar amount of (S)-(−)-nicotine.
as §1, with “ganglionic” for “muscle”
With `NCC/C=C/c1cncc(Br)c1` [Sample No. 2, (E)-4-[3-(5-Bromopyridin)yl]-3-buten-1-amine Hemifumarate] the “Ganglion Effect (% nicotine)” value was 11 % nicotine. With `CNCC/C=C/c1cncc(-c2ccccc2)c1` [Sample No. 8, (E)-N-Methyl-4-[3-(5-phenylpyridin)yl]-3-buten-1-amine] the “Ganglion Effect (% nicotine)” value was 0 % nicotine. For `CN1CCC[C@H]1c1cccnc1` [Sample No. C-1, (S)-(−)-nicotine, reference compound], the “Ganglion Effect (% nicotine)” value was 100 % nicotine. With `CNCC/C=C/c1cncc(OC(C)C)c1` [Sample No. 4, (E)-N-Methyl-4-[3-(5-isopropoxypyridin)yl]-3-buten-1-amine] the “Ganglion Effect (% nicotine)” value was under 15 % nicotine. With `CNCC/C=C/c1cncc(Oc2ccccc2)c1` [Sample No. 3, (E)-N-Methyl-4-[3-(5-phenoxypyridin)yl]-3-buten-1-amine] the “Ganglion Effect (% nicotine)” value was under 15 % nicotine. With `NCC/C=C/c1cccnc1.O=C(O)/C=C/C(=O)O.O=C(O)/C=C/C(=O)O` [Sample No. 6, (E)-4-(3-pyridinyl)-3-buten-1-amine difumarate] the “Ganglion Effect (% nicotine)” value was 23 % nicotine. With `CCOc1cncc(/C=C/CCNC)c1` [Sample No. 7, (E)-N-Methyl-4-[3-(5-ethoxypyridin)yl]-3-buten-1-amine Sesquifumarate] the “Ganglion Effect (% nicotine)” value was under 15 % nicotine. For `CNCC/C=C/c1cncc(N)c1` [Sample No. 9, (E)-N-methyl-4-[3-(5-aminopyridin)yl]-3-buten-1-amine], the “Ganglion Effect (% nicotine)” value was 4 % nicotine. With `CNCC/C=C/c1cncc(OCc2ccccc2)c1` [Sample No. 1, (E)-N-Methyl-4-[3-(5-benzyloxypyridin)yl]-3-buten-1-amine] the “Ganglion Effect (% nicotine)” value was 0 % nicotine. For `CNCC/C=C/c1cncc(COC)c1` [Sample No. 5, (E)-N-Methyl-4-[3-(5-methoxymethylpyridin)yl]-3-buten-1-amine], the “Ganglion Effect (% nicotine)” value was 0 % nicotine.
